Measured values from ChEMBL document CHEMBL4402586, “2-Aminophenylpyrimidines as Novel Inhibitors of Aminoacyl-tRNA Synthetase Interacting Multifunctional Protein 2 (AIMP2)-DX2 for Lung Cancer Treatment” (J Med Chem, 2020).
Activity calls are given as the source filed them. The rule behind the calls is not given here.

Legend:
[1] = system: NCI-H460; experiment: Growth inhibition of human NCI-H460 cells incubated for 72 hrs by MTT assay; type: functional; conditions: NCI-H460, 72 h
[2] = system: Calu-6; experiment: Growth inhibition of human Calu6 cells incubated for 72 hrs by MTT assay; type: functional; conditions: Calu-6, 72 h
[3] = system: Mus musculus; experiment: Effect on tumor AIMP2 expression in BALB/c mouse xenografted with human NCI-H460 cells at 40 mg/kg, ip dosed every other day for 13 days by SDS-PAGE and Western blotting analysis; type: ADME, organism-based; conditions: in vivo, 312 h
[4] = Growth inhibition of human WI26 cells incubated for 72 hrs by MTT assay
[5] = Toxicity in BALB/c mouse xenografted with human NCI-H460 cells assessed effect on body weight at 40 mg/kg, ip dosed every other day for 13 days; type: organism-based; conditions: in vivo, 312 h
[6] = system: NCI-H460; experiment: Antitumor activity against human NCI-H460 cells xenografted in BALB/c mouse assessed as decrease in tumor size at 40 mg/kg, ip dosed every other day for 13 days; type: functional, organism-based
[7] = Toxicity in BALB/c mouse xenografted with human NCI-H460 cells at 40 mg/kg, ip dosed every other day for 13 days; type: organism-based; conditions: in vivo, 312 h
[8] = system: NCI-H460; experiment: Effect on AIMP2 DX2 isoform mRNA expression in human NCI-H460 cells at 1.2 to 10 uM by RT-PCR analysis; type: ADME, cell-based; conditions: nci-h460, 10 µM
[9] = Drug level in tumor of BALB/c mouse xenografted with human NCI-H460 cells […] at 40 mg/kg, ip dosed every other day for 13 days; type: ADME, organism-based, Neoplasm; conditions: read-out: Drug uptake
[10] = species: Mus musculus; conditions: BALB/c, 40 mg/kg
Description: Inhibition of tumor AIMP2-DX2 expression in BALB/c mouse xenografted with human NCI-H460 cells at 40 mg/kg, ip dosed every other day for 13 days by SDS-PAGE and Western blotting analysis

[11] = system: NCI-H1299; experiment: Growth inhibition of human NCI-H1299 cells incubated for 72 hrs by MTT assay; type: functional; conditions: NCI-H1299, 72 h
[12] = system: NCI-H460; experiment: Antitumor activity against human NCI-H460 cells xenografted in BALB/c mouse assessed as decrease in tumor volume at 40 mg/kg, ip dosed every other day for 13 days; type: functional, organism-based
[13] = system: A549; experiment: Growth inhibition of human A549 cells incubated for 72 hrs by MTT assay; type: functional; conditions: A549, 72 h
[14] = system: A549; experiment: Growth inhibition of human A549 cells by MTT assay; type: functional
[15] = target: T1, Aminoacyl tRNA synthase complex-interacting multifunctional protein 2 (Homo sapiens) (UniProt Q13155); experiment: Inhibition of DX2-p14/ARF interaction in human SCLC cells assessed as inhibition of cell growth by MTT assay; type: cell-based
T1 sequence (whole entry): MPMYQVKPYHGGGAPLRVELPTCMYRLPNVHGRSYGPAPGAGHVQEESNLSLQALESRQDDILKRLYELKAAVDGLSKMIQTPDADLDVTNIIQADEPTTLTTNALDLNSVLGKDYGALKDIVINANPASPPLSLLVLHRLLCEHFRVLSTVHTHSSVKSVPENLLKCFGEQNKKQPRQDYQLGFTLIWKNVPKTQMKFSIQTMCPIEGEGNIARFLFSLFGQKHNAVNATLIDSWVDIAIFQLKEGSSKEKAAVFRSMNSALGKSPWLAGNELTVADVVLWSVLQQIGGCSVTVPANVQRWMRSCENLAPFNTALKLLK

[16] = system: NSCLC; experiment: Growth inhibition of human NSCLC; type: functional

Compound	GI50 [1] [µM]	GI50 [2] [µM]	Activity [3]	growth inhibition (GI) [4]	Activity [5]	Activity [6]	Activity [7]	Activity [8]	concentration at 312 h [9] [µM]	inhibition [10]	GI50 [11] [µM]	Activity [12]	GI50 [13] [µM]	GI50 [14] [µM]	GI50 [15] [µM]	GI50 [16] [µM]
COC1CCCN(c2cc(-c3ccc(Cl)cc3)nc(Nc3cccc(OCCN4CCN(C)CC4)c3)n2)C1 (stereo not drawn)	0.6	4.4	Non-Toxic	Non-Toxic	Non-Toxic	Active	Non-Toxic	Non-Toxic	62.7	Active	4.18	Active	2.82	–	–	–
CN1CCN(CCOc2cccc(Nc3nc(-c4ccc(Cl)cc4)cc(N4CCOCC4)n3)c2)CC1	–	–	–	–	–	–	–	–	–	–	–	–	–	6.5	–	–
CC1(C)Oc2cc3oc(=O)ccc3cc2C[C@@H]1OC(=O)/C=C/c1ccco1	–	–	–	–	–	–	–	–	–	–	–	–	–	–	5 to 10	> 50
CN1CCN(CCOc2cccc(Nc3nccc(-c4ccc(Cl)cc4)n3)c2)CC1	0.89	4.22	Non-Toxic	Non-Toxic	Non-Toxic	Active	–	Non-Toxic	0.088	Active	5.78	Active	1.13	–	–	–
